From ChEMBL document CHEMBL1201862, “PubChem BioAssay data set” (2004)
Calls of active or inactive are those of the source.

What was measured:
Streptokinase A = biological target: T1, Streptokinase A (Streptococcus pyogenes serotype M1, UniProt P10520); test: viability-normalized secreted streptokinase activity reduction – plasminogen activation absorbance, OD405, dose response (AID 1914); assay type: functional, Streptococcus pyogenes M1 GAS;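 also: secreted streptokinase activity via plasminogen activation per viability signal from cell pellet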
T1 sequence (P10520 whole entry): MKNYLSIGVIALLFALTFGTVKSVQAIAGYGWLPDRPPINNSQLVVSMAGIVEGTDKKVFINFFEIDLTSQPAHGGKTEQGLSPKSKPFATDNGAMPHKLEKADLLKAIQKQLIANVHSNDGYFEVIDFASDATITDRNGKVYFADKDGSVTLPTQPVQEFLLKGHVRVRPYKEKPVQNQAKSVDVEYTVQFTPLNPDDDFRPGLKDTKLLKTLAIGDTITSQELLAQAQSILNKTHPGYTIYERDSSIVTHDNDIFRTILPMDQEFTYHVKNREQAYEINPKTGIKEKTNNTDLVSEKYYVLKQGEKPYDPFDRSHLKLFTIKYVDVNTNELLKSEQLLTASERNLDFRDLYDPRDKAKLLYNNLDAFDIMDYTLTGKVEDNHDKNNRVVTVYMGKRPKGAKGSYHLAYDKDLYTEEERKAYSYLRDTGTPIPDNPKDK

[1] = biological target: T2, Sentrin-specific protease 7 (Homo sapiens, UniProt Q9BQF6); assay type: functional;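 also: Luminescence-based dose-response confirmation of ultra-high-throughput screening hits, measuring inhibition of SENP7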
T2 sequence (Q9BQF6 whole entry): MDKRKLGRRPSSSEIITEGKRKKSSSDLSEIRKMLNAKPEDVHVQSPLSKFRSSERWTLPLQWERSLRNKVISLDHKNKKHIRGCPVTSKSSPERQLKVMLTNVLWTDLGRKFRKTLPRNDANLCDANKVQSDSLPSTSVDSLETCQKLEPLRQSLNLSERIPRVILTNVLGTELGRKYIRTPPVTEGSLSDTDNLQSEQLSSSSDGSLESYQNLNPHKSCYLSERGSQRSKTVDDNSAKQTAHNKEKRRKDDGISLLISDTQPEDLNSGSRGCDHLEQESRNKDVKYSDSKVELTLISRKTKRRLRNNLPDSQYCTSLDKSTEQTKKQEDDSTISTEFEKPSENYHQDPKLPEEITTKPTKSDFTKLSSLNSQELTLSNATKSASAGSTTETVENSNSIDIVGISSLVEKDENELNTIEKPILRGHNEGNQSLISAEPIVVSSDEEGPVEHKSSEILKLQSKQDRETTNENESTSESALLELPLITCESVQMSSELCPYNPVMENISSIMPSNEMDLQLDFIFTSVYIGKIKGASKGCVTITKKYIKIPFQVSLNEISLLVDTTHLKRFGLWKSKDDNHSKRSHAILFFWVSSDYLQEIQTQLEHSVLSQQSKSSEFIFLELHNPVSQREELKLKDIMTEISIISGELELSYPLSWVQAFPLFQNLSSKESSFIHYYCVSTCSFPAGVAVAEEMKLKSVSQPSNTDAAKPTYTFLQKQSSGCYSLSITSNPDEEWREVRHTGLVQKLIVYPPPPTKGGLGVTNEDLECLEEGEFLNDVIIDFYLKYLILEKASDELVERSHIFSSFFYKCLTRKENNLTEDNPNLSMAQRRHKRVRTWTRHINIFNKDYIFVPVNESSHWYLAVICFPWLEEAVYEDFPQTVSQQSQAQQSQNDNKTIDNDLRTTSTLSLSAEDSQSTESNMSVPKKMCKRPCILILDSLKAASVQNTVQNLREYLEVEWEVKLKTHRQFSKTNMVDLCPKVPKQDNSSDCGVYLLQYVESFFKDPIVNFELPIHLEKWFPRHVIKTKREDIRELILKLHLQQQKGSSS

Protein RecA = biological target: T3, Protein RecA (Mycobacterium tuberculosis, UniProt P9WHJ3); test: Fluorescence Cell-Free Homogeneous Dose Retest to Identify Inhibitors of RecA-Intein Splicing Activity. [Related pubchem assays (depositor defined):AID2097, AID2223, AID489010, AID492950]; assay type: functional
T3 sequence (P9WHJ3 whole entry): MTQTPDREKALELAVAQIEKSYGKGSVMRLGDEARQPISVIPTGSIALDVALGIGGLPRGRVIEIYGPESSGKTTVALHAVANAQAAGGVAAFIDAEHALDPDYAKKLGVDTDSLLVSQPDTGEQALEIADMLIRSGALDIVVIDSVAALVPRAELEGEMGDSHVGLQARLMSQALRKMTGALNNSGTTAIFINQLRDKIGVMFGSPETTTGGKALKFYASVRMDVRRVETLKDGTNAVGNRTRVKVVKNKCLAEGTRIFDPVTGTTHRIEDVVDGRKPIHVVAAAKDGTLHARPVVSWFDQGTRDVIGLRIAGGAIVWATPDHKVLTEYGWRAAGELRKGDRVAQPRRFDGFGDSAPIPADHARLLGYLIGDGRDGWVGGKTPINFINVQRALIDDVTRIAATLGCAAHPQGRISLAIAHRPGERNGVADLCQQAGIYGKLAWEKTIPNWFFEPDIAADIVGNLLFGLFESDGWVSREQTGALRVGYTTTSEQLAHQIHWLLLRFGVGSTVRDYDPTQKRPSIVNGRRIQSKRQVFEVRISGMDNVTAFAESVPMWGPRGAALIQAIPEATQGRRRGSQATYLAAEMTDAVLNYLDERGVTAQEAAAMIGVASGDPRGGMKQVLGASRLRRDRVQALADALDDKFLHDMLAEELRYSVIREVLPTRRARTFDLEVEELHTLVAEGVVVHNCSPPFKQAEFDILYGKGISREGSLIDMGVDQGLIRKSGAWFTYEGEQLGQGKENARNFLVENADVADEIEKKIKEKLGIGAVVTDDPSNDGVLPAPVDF

[2] = biological target: Serine/threonine-protein kinase D3 (Homo sapiens, UniProt O94806); assay type: functional;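 also: determined within a kinase panel screen, with PRKCN as the panel member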
Sequence of Serine/threonine-protein kinase D3 (O94806 whole entry): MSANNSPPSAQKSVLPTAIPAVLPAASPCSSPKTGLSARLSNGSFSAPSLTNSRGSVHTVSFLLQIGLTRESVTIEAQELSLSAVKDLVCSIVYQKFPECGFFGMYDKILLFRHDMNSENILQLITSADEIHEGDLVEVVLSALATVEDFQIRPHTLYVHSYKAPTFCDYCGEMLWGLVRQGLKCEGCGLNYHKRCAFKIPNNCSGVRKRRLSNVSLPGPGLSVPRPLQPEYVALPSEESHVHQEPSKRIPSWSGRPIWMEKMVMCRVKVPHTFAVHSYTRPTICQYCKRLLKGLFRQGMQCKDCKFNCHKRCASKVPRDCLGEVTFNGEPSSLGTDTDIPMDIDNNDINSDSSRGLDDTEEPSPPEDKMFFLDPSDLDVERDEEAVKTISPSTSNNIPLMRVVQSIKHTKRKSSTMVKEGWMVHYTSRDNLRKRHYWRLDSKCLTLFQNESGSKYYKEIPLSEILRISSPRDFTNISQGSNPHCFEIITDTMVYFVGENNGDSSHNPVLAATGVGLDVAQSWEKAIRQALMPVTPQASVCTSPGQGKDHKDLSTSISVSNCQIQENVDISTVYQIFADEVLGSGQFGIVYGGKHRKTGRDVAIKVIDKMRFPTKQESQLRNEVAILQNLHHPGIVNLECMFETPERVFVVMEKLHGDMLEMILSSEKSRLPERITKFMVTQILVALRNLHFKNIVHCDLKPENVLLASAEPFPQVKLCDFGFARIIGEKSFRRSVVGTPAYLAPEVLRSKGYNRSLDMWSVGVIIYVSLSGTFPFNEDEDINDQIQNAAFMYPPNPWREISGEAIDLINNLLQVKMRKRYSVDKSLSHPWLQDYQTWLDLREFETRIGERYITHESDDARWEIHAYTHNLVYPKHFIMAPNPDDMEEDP

[3] = biological target: High affinity nerve growth factor receptor (Homo sapiens, UniProt P04629); assay type: functional;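 also: NTRK1 tested as one member of a kinome-wide profiling panel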
Sequence of High affinity nerve growth factor receptor (P04629 whole entry): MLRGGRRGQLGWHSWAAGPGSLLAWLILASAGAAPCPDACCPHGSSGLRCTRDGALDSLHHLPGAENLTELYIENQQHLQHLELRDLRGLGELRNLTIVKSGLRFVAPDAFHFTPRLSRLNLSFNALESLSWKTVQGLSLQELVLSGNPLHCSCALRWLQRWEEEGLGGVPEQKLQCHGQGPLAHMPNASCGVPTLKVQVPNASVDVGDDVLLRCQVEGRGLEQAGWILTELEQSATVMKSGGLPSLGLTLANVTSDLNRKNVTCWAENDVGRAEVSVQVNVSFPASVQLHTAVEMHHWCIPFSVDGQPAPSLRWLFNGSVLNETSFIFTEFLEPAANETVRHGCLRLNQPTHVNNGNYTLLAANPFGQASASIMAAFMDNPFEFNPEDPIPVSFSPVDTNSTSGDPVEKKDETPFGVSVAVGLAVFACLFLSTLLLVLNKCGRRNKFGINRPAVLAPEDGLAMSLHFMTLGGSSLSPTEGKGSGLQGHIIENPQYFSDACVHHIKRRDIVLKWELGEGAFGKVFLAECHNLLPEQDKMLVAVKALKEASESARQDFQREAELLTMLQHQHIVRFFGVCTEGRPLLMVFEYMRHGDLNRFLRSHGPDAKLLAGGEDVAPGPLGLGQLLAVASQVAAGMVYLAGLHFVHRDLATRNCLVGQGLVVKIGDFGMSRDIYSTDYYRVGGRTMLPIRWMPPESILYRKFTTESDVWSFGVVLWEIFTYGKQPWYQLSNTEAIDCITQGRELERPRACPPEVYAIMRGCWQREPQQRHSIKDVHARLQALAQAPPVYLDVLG

[4] = biological target: Tyrosine-protein kinase JAK3 (Homo sapiens, UniProt P52333); assay type: functional
Sequence of Tyrosine-protein kinase JAK3 (P52333 whole entry): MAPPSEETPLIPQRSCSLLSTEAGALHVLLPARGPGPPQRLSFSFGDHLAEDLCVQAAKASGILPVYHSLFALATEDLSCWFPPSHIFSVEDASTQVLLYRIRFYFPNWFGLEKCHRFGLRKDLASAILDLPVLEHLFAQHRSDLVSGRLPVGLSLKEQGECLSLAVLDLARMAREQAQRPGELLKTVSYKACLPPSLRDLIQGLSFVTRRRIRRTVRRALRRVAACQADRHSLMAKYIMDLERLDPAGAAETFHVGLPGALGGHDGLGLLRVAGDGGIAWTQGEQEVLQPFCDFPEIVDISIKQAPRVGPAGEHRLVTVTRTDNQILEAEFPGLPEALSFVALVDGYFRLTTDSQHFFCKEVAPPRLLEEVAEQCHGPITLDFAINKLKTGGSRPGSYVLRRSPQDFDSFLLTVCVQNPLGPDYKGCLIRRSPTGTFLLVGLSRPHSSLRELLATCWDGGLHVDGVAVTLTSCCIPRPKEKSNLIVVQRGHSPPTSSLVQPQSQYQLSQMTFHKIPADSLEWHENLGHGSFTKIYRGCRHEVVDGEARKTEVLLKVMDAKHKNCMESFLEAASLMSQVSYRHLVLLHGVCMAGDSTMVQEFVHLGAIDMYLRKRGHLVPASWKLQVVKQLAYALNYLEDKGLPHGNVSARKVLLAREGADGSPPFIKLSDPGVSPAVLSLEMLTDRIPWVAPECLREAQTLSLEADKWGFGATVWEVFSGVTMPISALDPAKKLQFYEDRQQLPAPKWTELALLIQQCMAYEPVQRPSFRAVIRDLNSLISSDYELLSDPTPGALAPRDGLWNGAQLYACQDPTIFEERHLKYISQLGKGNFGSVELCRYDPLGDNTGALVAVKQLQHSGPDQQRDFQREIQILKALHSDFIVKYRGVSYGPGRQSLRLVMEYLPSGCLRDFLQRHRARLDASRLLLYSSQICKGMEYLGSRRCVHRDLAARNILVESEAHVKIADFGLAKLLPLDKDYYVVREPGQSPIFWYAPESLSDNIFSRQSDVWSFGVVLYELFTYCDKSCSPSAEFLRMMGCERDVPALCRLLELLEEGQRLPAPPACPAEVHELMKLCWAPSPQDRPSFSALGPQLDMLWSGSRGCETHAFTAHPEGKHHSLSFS

[5] = biological target: T4, cAMP-dependent protein kinase catalytic subunit PRKX (Homo sapiens, UniProt P51817); assay type: functional
T4 sequence (P51817 whole entry): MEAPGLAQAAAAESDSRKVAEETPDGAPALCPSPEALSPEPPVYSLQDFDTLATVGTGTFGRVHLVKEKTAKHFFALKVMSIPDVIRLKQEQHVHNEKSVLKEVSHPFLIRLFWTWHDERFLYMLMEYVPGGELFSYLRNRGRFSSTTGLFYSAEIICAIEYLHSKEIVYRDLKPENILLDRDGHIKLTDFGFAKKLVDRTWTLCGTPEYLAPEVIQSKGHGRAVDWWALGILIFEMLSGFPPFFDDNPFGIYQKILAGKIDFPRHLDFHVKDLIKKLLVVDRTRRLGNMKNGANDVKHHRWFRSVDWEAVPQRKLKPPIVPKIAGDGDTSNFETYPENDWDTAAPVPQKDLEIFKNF

[6] = biological target: Vascular endothelial growth factor receptor 1 (Homo sapiens, UniProt P17948); assay type: functional;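 also: measured within a kinome-wide profiling panel, FLT1 as the panel member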
Sequence of Vascular endothelial growth factor receptor 1 (P17948 whole entry): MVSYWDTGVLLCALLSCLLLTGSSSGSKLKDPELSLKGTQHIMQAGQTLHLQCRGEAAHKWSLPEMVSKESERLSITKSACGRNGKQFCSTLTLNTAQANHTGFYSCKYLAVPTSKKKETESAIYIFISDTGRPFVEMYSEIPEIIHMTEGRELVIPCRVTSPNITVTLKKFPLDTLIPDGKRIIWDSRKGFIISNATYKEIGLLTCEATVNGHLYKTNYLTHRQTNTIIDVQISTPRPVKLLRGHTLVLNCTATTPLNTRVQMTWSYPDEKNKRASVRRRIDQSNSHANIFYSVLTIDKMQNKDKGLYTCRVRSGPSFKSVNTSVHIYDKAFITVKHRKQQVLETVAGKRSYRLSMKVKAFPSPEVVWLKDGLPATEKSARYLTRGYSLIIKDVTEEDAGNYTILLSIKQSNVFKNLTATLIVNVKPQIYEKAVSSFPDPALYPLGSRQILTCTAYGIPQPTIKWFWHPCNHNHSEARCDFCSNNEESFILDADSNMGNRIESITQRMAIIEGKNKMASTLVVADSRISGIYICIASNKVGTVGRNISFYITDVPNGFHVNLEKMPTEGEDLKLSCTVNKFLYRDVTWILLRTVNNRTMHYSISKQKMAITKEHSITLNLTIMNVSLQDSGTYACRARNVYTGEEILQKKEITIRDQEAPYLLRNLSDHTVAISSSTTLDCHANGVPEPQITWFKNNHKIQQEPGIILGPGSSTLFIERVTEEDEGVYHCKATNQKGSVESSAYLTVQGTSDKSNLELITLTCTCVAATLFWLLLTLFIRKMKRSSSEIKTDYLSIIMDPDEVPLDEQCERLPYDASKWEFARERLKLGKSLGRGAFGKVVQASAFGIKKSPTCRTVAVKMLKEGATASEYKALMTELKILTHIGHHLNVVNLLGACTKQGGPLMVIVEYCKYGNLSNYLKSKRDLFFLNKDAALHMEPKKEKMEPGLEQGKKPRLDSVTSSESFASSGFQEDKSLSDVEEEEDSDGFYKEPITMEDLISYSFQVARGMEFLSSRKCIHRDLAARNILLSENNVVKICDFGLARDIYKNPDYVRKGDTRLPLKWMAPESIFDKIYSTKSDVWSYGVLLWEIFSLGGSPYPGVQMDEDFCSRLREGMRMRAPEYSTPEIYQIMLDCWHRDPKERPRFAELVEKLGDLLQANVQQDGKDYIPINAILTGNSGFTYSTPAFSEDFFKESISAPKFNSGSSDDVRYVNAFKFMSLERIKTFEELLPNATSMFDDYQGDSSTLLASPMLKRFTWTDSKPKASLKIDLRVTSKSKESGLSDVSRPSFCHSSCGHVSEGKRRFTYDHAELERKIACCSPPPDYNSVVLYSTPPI

SMILES | EC50 (Streptokinase A) | IC50 [1] | EC50 (Protein RecA) | Ki [2] | Ki [3] | Ki [4] | Ki [5] | Ki [6]
Cc1cc(C)c[n+](C2=C([N-]S(=O)(=O)c3cccs3)C(=O)c3ccccc3C2=O)c1 | > 150000 nM (not active) | 41200 nM (active) | – | – | – | – | – | –
CCCCCCCCCCC[N+](C)(C)CC/C=C1/c2ccccc2Sc2ccc(Cl)cc21 | 8220 nM (active) | – | 10100 nM (active) | – | – | – | – | –
CCn1c(-c2nonc2N)nc2cncc(C(=O)N3CCC(N)C3)c21 (stereo unspecified) | – | – | – | 631 nM (active) | > 3160 nM (inactive) | > 5010 nM (inactive) | 20 nM (active) | > 3980 nM (inactive)
Cc1[nH]nc2ccc(-c3cncc(OCC(N)Cc4c[nH]c5ccccc45)c3)cc12 (stereo unspecified) | – | – | – | 5.01 nM (active) | > 2510 nM (inactive) | 316 nM (active) | 63.1 nM (active) | > 398 nM (inactive)
COC(=O)c1ccccc1NC1=C/C(=N\S(=O)(=O)c2cccs2)c2ccccc2C1=O | – | 32300 nM (active) | 20.8 nM (inconclusive) | – | – | – | – | –
